According to US6689754B1, “Heterocyclic glycyl β-alanine derivatives” (G. D. Searle & Co., priority 1998, dated 2004):
Structures can show the parent of a compound that is named as a salt.

What was measured:
[1] = biological target: T1, Human fibrinogen receptor IIb/IIIa (Homo sapiens, UniProt P05106+P08514); test: Purified IIb/IIIa receptor assay: solid phase receptor assay, competition with biotinylated vitronectin; type: binding; conditions: 1 nM biotinylated vitronectin
T1 construct: Human fibrinogen receptor ([…]) was purified from outdated platelets; from tissue; host or cells: outdated human platelets
Excerpt: Purified IIb/IIIa Receptor Assay
Human fibrinogen receptor ([…]) was purified from outdated platelets. (Pytela, R., Pierschbacher, M. D., Argraves, S., Suzuki, S., and Rouslahti, E. “Arginine-Glycine-Aspartic acid adhesion receptors”, Methods in Enzymology 144(1987):475-489.) Human vitronectin was purified from fresh frozen plasma as described in Yatohgo, T., Izumi, M., Kashiwagi, H., and Hayashi, M., “Novel purification of vitronectin from human plasma by heparin affinity chromatography,” Cell Structure and Function 13(1988):281-292. Biotinylated human vitronectin was prepared by coupling NHS-biotin from Pierce Chemical Company (Rockford, Ill.) to purified vitronectin as previously described. (Charo, I. F., Nannizzi, L., Phillips, D. R., Hsu, M. A., Scarborough, R. M., “Inhibition of fibrinogen binding to GP IIb/IIIa by a GP IIIa peptide”, J. Biol. Chem. 266(3)(1991): 1415-1421.) Assay buffer, OPD substrate tablets, and RIA grade BSA were obtained from Sigma (St. Louis, Mo.). Anti-biotin antibody was obtained from Calbiochem (La Jolla, Calif.). Linbro microtiter plates were obtained from Flow Labs (McLean, Vs.). ADP reagent was obtained from Sigma (St. Louis, Mo.).
This assay is essentially the same reported in Niiya, K., Hodson, E., Bader, R., Byers-Ward, V. Koziol, J. A., Plow, E. F. and Ruggeri, Z. M., “Increased surface expression of the membrane glycoprotein IIb/IIIa complex induced by platelet activation: Relationships to the binding of fibrinogen and platelet aggregation”, Blood 70(1987):475-483. The purified human fibrinogen receptor ([…]) was diluted from stock solutions to 1.0 μg/mL in Tris-buffered saline containing 1.0 mM Ca^++, Mg^++, and Mn^++, pH 7.4 (TBS^+++). The diluted receptor was immediately transferred to Linbro microtiter plates at 100 μL/well (100 ng receptor/well). The plates were sealed and incubated overnight at 4° C. to allow the receptor to bind to the wells. All remaining Steps were at room temperature. The assay plates were emptied and 200 μL of 1% RIA grade BSA in TBS^+++ (TBS^+++/BSA) were added to block exposed plastic surfaces. Following a 2 hour incubation, the assay plates were washed with TBS^+++ using a 96 well plate washer. Logarithmic serial dilution of the test compound and controls were made starting at a stock concentration of 2 mM and using 2 nM biotinylated vitronectin in TBS^+++/BSA as the diluent. This premixing of labeled ligand with test (or control) ligand, and subsequent transfer of 50 μL aliquots to the assay plate was carried out with a CETUS Propette robot; the final concentration of the labeled ligand was 1 nM and the highest concentration of test compound was 1.0×10^−4 M. The competition occurred for two hours after which all wells were washed with a plate washer as before. Affinity purified horseradish peroxidase labeled goat anti-biotin antibody was diluted 1:3000 in TBS^+++/BSA and 125 μL were added to each well. After 30 minutes, the plates were washed and incubated with […] substrate in 100 mM/L citrate buffer, pH 5.0. The plate was read with a microtiter plate reader at a wavelength of 450 nm and when the maximum-binding control wells reached an absorbance of about 1.0, the final A450 were recorded for analysis. The data were analyzed using a macro written for use with the EXCELJ spreadsheet program. The mean, standard deviation, and % CV were determined for duplicate concentrations. The mean A450 values were normalized to the mean of four maximum-binding controls (no competitor added)(B-MAX). The normalized values were subjected to a four parameter curve fit algorithm, [Robard et al., Int. Atomic Energy Agency.

[2] = biological target: T2, Human vitronectin receptor (αvβ3) (Homo sapiens, UniProt P05106+P06756); test: Vitronectin adhesion assay: solid phase receptor assay, competition with biotinylated vitronectin; type: binding; conditions: purified human vitronectin receptor; 1 nM biotinylated vitronectin
T2 construct: Human vitronectin receptor (αvβ3) was purified from human placenta; from tissue; host or cells: human placenta
Description: Vitronectin Adhesion Assay
Human vitronectin receptor (αvβ3) was purified from human placenta as previously described [Pytela et al., Methods in Enzymology, 144:475-489 (1987)]. Human vitronectin was purified from fresh frozen plasma as previously described [Yatohgo et al., Cell Structure and Function, 13:281-292 (1988)]. Biotinylated human vitronectin was prepared by coupling NHS-biotin from Pierce Chemical Company (Rockford, Ill.) to purified vitronectin as previously described [Charo et al., J. Biol. Chem., 266(3):1415-1421 (1991)]. Assay buffer, OPD substrate tablets, and RIA grade BSA were obtained from Sigma (St. Louis, Mo.). Anti-biotin antibody was obtained from Calbiochem (La Jolla, Calif.). Linbro microtiter plates were obtained from Flow Labs (McLean, Va.). ADP reagent was obtained from Sigma (St. Louis, Mo.).
This assay was essentially the same as previously reported [Niiya et al., Blood, 70:475-483 (1987)]. The purified human vitronectin receptor (αvβ3) was diluted from stock solutions to 1.0 μg/mL in Tris-buffered saline containing 1.0 mM Ca^++, Mg^++, and Mn^++, pH 7.4 (TBS^+++). The diluted receptor was immediately transferred to Linbro microtiter plates at 100 μL/well (100 ng receptor/well). The plates were sealed and incubated overnight at 4° C. to allow the receptor to bind to the wells. All remaining steps were at room temperature. The assay plates were emptied and 200 μL of 1% RIA grade BSA in TBS^+++ (TBS^+++/BSA) were added to block exposed plastic surfaces. Following a 2 hour incubation, the assay plates were washed with TBS^+++ using a 96 well plate washer. Logarithmic serial dilution of the test compound and controls were made starting at a stock concentration of 2 mM and using 2 nM biotinylated vitronectin in TBS^+++/BSA as the diluent. This premixing of labeled ligand with test (or control) ligand, and subsequent transfer of 50 μL aliquots to the assay plate was carried out with a CETUS Propette robot; the final concentration of the labeled ligand was 1 nM and the highest concentration of test compound was 1.0×10^−4 M. The competition occurred for two hours after which all wells were washed with a plate washer as before. Affinity purified horseradish peroxidase labeled goat anti-biotin antibody was diluted 1:3000 in TBS^+++/BSA and 125 μL were added to each well. After 30 minutes, the plates were washed and incubated with OPD/H2O2 substrate in 100 mM/L Citrate buffer, pH 5.0. The plate was read with a microtiter plate reader at a wavelength of 450 nm and when the maximum-binding control wells reached an absorbance of about 1.0, the final A450 were recorded for analysis. The data were analyzed using a macro written for use with the EXCELJ spreadsheet program. The mean, standard deviation, and % CV were determined for duplicate concentrations. The mean A450 values were normalized to the mean of four maximum-binding controls (no competitor added)(B-MAX). The normalized values were subjected to a four parameter curve fit algorithm [Rodbard et al., Int.

IC50 [1]	IC50 [2]	SMILES
1200 nM	0.34 nM	O=C(O)C[C@H](NC(=O)CNC(=O)c1c[nH]c(=O)c(NC2=NCC(O)CN2)c1)c1cc(Br)cc(Cl)c1O (stereo partly drawn) [Example 34]
7530 nM	6.5 nM	O=C(O)C[C@H](NC(=O)CNC(=O)c1cc(NC2=NCC(O)CN2)[nH]c(=O)c1)c1cc(Cl)cc(Br)c1O (stereo partly drawn) [Example 43]
462 nM	0.34 nM	O=C(O)C[C@H](NC(=O)CNC(=O)c1cncc(N=C2NCC(O)CN2)c1)c1cc(Br)cc(Br)c1O (stereo partly drawn) [Example 11]
49 nM	2.1 nM	O=C(O)CC(NC(=O)CNC(=O)c1cncc(NC2=NCC(O)CN2)c1)c1cc(Cl)cc(Br)c1O (stereo not drawn) [Example 32]
482 nM	0.26 nM	COc1ncc(C(=O)NCC(=O)N[C@@H](CC(=O)O)c2cc(Cl)cc(Cl)c2O)cc1NC1=NCC(O)CN1 (stereo partly drawn) [Example 27]
340 nM	0.14 nM	O=C(O)C[C@H](NC(=O)CNC(=O)c1c[nH]c(=O)c(NC2=NCC(O)CN2)c1)c1cc(Br)cc(Br)c1 (stereo partly drawn) [Example 35]
1380 nM	0.46 nM	O=C(O)CC(NC(=O)CNC(=O)c1c[nH]c(=O)c(NC2=NCC(O)CN2)c1)c1cc(Br)cc(Br)c1O (stereo not drawn) [Example 29]
6710 nM	0.99 nM	CC1(C)CN=C(Nc2cc(C(=O)NCC(=O)N[C@@H](CC(=O)O)c3cc(Cl)cc(Cl)c3O)c[nH]c2=O)NC1 [Example 47]
551 nM	0.2 nM	O=C(O)C[C@H](NC(=O)CNC(=O)c1c[nH]c(=O)c(NC2=NCC(O)CN2)c1)c1cc(Cl)cc(Cl)c1O (stereo partly drawn) [Example 21, (3S)-N-[[1,6-dihydro-6-oxo-5-[(1,4,5,6-tetrahydro-5-hydroxy-2-pyrimidinyl)amino]-3-pyridinyl]carbonyl]glycyl-3-(3,5-dichloro-2-hydroxyphenyl)-β-alanine, trifluoroacetate salt]
1060 nM	42.1 nM	Nc1ncc(C(=O)NCC(=O)NC(CC(=O)O)c2cc(Cl)cc(Cl)c2O)cc1NC1=NCC(O)CN1 (stereo not drawn) [Example 44]

The next lines start with the compound.

SMILES	IC50 [1]	IC50 [2]
Cc1sc(C(=O)NCC(=O)N[C@@H](CC(=O)O)c2cc(Cl)cc(Cl)c2O)cc1NC1=NCC(O)CN1 (stereo partly drawn) [Example 14, (3S)-N-[[5-methyl-4-[(1,4,5,6-tetrahydro-5-hydroxy-2-pyrimidinyl)amino]-2-thienyl]carbonyl]glycyl-3-(3,5-dichloro-2-hydroxyphenyl)-β-alanine, trifluoroacetate salt]	772 nM	12.4 nM
COc1ncc(C(=O)NCC(=O)NC(CC(=O)O)c2cc(Cl)cc(Cl)c2O)cc1NC1=NCCN1 (stereo not drawn) [Example 17, N-[[5-(4,5,-dihydro-1H-imidazol-2-yl)amino]-6-methoxy-3-pyridinyl]carbonyl]glycyl]-3-(3,5-dichloro-2-hydroxyphenyl)-β-alanine, bis(trifluoroacetate) salt]	724 nM	0.46 nM
O=C(O)CC(NC(=O)CNC(=O)c1cncc(NC2=NCCN2)c1)c1cc(Cl)cc(I)c1O (stereo not drawn) [Example 5]	884 nM	0.42 nM
O=C(O)CC(NC(=O)CNC(=O)c1cncc(NC2=NCCN2)c1)c1cc(Cl)cc(Br)c1O (stereo not drawn) [Example 4]	581 nM	0.74 nM
O=C(O)C[C@H](NC(=O)CNC(=O)c1cc(NC2=NCC(O)CN2)cs1)c1cc(Cl)cc(Cl)c1O (stereo partly drawn) [Example 12, (3S)-N-[[4-[(1,4,5,6-tetrahydro-5-hydroxy-2-pyrimidinyl)amino]-2-thienyl]carbonyl]glycyl-3-(3,5-dichloro-2-hydroxyphenyl)-β-alanine, trifluoroacetate salt]	442 nM	4.5 nM
O=C(O)CC(NC(=O)CNC(=O)c1cc(N=C2NCCN2)c[nH]c1=O)c1cc(Cl)cc(Cl)c1O (stereo not drawn) [Example 23, N-[[5-(4,5,-dihydro-1H-imidazol-2-yl)amino]-1,2-dihydro-2-oxo-3-pyridinyl]-carbonyl]glycyl-3-(3,5-dichloro-2-hydroxyphenyl)-β-alanine, (trifluoroacetate) salt]	10100 nM	3600 nM
Cn1cc(C(=O)NCC(=O)NC(CC(=O)O)c2cc(Cl)cc(Cl)c2O)cc(NC2=NCCN2)c1=O (stereo not drawn) [Example 18, N-[[5-(4,5,-dihydro-1H-imidazol-2-yl)amino]-1,6-dihydro-1-methyl-6-oxo-3-pyridinyl]carbonyl]glycyl-3-(3,5-dichloro-2-hydroxyphenyl-β-alanine, (trifluoroacetate) salt]	798 nM	0.43 nM
Cn1nc(C(=O)NCC(=O)NC(CC(=O)O)c2cc(Cl)cc(Cl)c2O)cc1NC1=NCCN1 (stereo not drawn) [Example 24, N-[[(4,5-dihydro-1H-imidazol-2-yl)amino]-1-methyl-1H-pyrazol-3yl]carbonyl]glycyl-3-(3,5-dichloro-2-hydroxyphenyl)-β-alanine, (trifluoroacetate) salt]	15800 nM	91200 nM
O=C(O)CC(NC(=O)CNC(=O)c1cc(NC2=NCCN2)[nH]n1)c1cc(Cl)cc(Cl)c1O (stereo not drawn) [Example 25, N-[[5-[(4,5-dihydro-1H-imidazol-2-yl)amino]-1H-pyrazol-3-yl]carbonyl]-glycyl-3-(3,5-dichloro-2-hydroxyphenyl)-β-alanine, (trifluoroacetate) salt]	3910 nM	1870 nM
O=C(O)C[C@H](NC(=O)CNC(=O)c1cncc(N=C2NCC(O)CN2)c1)c1cc(Cl)cc(Br)c1O (stereo partly drawn) [Example 9]	244 nM	0.18 nM
Cn1cc(NC2=NCC(O)CN2)cc1C(=O)NCC(=O)N[C@@H](CC(=O)O)c1cc(Cl)cc(Cl)c1O (stereo partly drawn) [Example 38]	115 nM	278 nM
